Data: patent US20240130957A1, “EXTRACTS OF ISOCHRYSIS SPECIES/TISOCHRYSIS SPECIES” (SYMRISE AG, priority 2020, published 2024)

Legend:
skin = conditions: similar to the effect seen with dihydroxyacetone; cited from earlier work
UVA-induced ROS = test: Reduction of UVA-induced ROS in organ culture of human skin (DCFH-DA); format: cell-based
Experimental: Organ culture of human skin was performed starting from a skin sample, exciding pieces of approximately 8×3 mm (ø×thickness). Skin samples (6 per treatment) were cultured in an air-liquid interface in a perforated ring of stainless steel in contact with culture medium (modified Williams' E medium).
At start of the skin culture, in parallel to untreated, the formulations 14.1 to 14.3 and 100% tocopherol acetate were applied topically on the skin samples and afterwards they were cultivated overnight. On the next day, the topical treatments were renewed for 1 hour. In parallel, culture medium with 100 μM of 2′,7′-dichlorofluorescin diacetate (DCFH-DA, Sigma #D6883) was prepared. After 1 hour of incubation of the skin samples, the culture medium was replaced by the medium containing DCFH-DA and the skin samples were incubated for 30 minutes. Then, the skin samples were washed in PBS buffer and UVA irradiation (lamp: Bio Sun by Vilber Lourmat, 60 J/cm2) was performed. Afterwards, the skin samples were harvested, cryo-fixed and cut at the cryostat for image acquisition and analysis. The image acquisition was performed using Olympus BX51 microscope and Olympus DP70 camera. Two skin sections for each skin sample were cut and the related images were acquired and analysed. Doing so, 12 images were obtained for each formulation for analysis. Image analysis was performed within the dermis area selected from the upper part by following the perimeter of the basal lamina to the deep dermis. The obtained values from were normalized upon the dimension of the selected area.

SMILES | production of free radicals (skin) | reduction of UVA-induced ROS vs untreated UVA-irradiated (UVA-induced ROS; 100% tocopherol acetate, topical) [%] | Modulation vs untreated + UVA (UVA-induced ROS; UVA 60 J/cm2) [%] | Mean ROS score (UVA-induced ROS; UVA 60 J/cm2, topical overnight and renewed 1 hour, untreated no UVA 0.015, untreated + UVA 0.573)
O=C(CO)[C@H](O)CO [Erythrulose, D-Erythrulose] | increase production of free radicals | – | – | –
CC(=O)Oc1c(C)c(C)c2c(c1C)CCC(C)(CCC[C@H](C)CCC[C@H](C)CCCC(C)C)O2 (stereo partly shown) [Tocopherol acetate] | – | 73 | −73 | 0.157
